We go through 3 compounds from patent publication US20210388364A1, “METHOD FOR DETECTING A SPECIFIC SPLICE EVENT OF A GENE OF INTEREST” (Helmholtz Zentrum Müncher - Deutsches Forschungszentrum Für …, priority 2019, published 2021).

One data set has as its system HEK-293T cells. Put plainly: Blasticidin-S survival selection of HEK-293T cells with or without bsd-intein in FOXP1 exon 18b. The data set is classed as cell-based, human. The text has this: To knock-out MBNL1/2 (mucleblind-like protein 1/2, SEQ ID NO: 62 and SEQ ID NO: 63) in HEK293T cell cells which carries a blasticidin resistance gene flanked by inteins within the FOXP1 exon 18b, two plasmids expressing a mammalian codon-optimized Cas9 from S. pyogenes (SpCas9, SpyCas9) with a tandem C-terminal SV40 nuclear localization signal (SV40 NLS) via a CBh hybrid RNA-polymerase II promoter and human U6 driving a single-guide-RNA (sgRNA, gRNA) for SpyCas9 (SEQ ID NO: 23) with a cloned protospacer targeting MBNL1 and MBNL2 were co-transfected into the cells. 72 h later, cells were replated in a proper format and medium were supplemented with indicated blasticidin concentration. Control condition were transfected with the same conditions but the sgRNA is targeting the control locus AAVS1 (PPP1R12C) (safe-harbor locus AAVSI intronic region, SEQ ID NO. 64). Genomic DNA was isolated from blasticidin-treated surviving colonies with Wizard® Genomic DNA Purification Kit (Promega).
Next, the inventors checked whether the KO of reported suppressors of FOXP1 exon 18b by knocking out their constitutive exon of MBNL1 and MBNL2 are able to confer survival of the cells upon treatment with bs compared to a control condition where gRNA targeting the safe-harbor AAVS1 locus (PPP1R12C) was transfected instead. […]

For a further data set, the system named is Oaz1. Put plainly: FACS analysis of Oaz1-EXSISERS-transfected cells treated with polyamines (ribosomal frameshift readout). The data set is classed as cell-based. The note with it: increasing polyamine concentrations, verified by immunoblot. The source says: FIG. 7: Non-invasive protein-level quantification of co-translation regulation. […] Rising polyamine levels lead to a +1 frameshift and skipping of the in-frame stop codon leading to the full-length Oaz1 antizyme. The usage of the in-frame stop codon will otherwise lead to truncated non-functional Oaz1. Full-length Oaz1 binds and inactivates the enzyme Odc, the rate-limiting enzyme in the polyamine biosynthesis pathway, resulting in a product-mediated closed-loop homeostatic regulation of polyamine levels. […] Transfected (blue cells) cells were analyzed by counting the fraction of blue cells passing the green gate which is set to contain the 25% greenest cells in the untreated condition (0 mM).
Ribosomal frameshift-mediated regulations cannot be monitored by RT-qPCR or other RNA-based quantification methods. Exemplary, Oaz1, […] (FIG. 7a) was chosen, since it was known to be regulated by polyamine. gp41-1 split-inteins-flanked mNeonGreen and NrdJ-1-split-inteins-flanked mTagBFP2 were inserted into the full-length Oaz1 gene and transfected cells were treated with increasing polyamine concentrations to determine whether frameshift regulation could be read out via fluorescence quantification (FIG. 7b).
Background: A flow cytometer gives signals particle by particle.

Regarding `CN(CC[C@H](N)CC(=O)N[C@H]1C=C[C@H](n2ccc(N)nc2=O)O[C@@H]1C(=O)O)C(=N)N` [bs, blasticidin-S], the cell survival entry is on record as “no survival” in the data set on HEK-293T cells (bs 5 to 12.5 μg/mL, reporter cells, control gRNA targeting AAVS1); “no cells survived” in the data set on HEK-293T cells (unmodified HEK-293T cells, targeting MBNL1 and MBNL2 or AAVS1).

As for `NCCCCNCCCN` [spermidine], in the data set on Oaz1, the stop codon readthrough entry is on record as “stimulated”.

As to `NCCCNCCCCNCCCN` [spermine], the stop codon readthrough entry in the data set with Oaz1 was “stimulated”.
